{
  "source": "patent US20260256830A1",
  "about": "“PERITONEAL DIALYSIS FLUID” (ZYTOPROTEC FLEXIBLE KAPITALGESELLSCHAFT, priority 2022, published 2026)",
  "experiment": "Long-term stability of AGD in alkaline solution (amino acid analysis)",
  "assay_type": "physicochemical",
  "details": "52 weeks; for AGD, % of original amount after storage: 25° C./60% rH",
  "protocol": "The long-term stability tests of AGD in an alkaline solution according to the present invention have been performed. […] The pH of each sample was adjusted with 1 M NaOH. Aliquots of each sample were prepared under controlled conditions and stored under the defined conditions at 25° C./60% rH. Sterilization was performed under following conditions: The stability of AGD has been investigated by AS analysis. Analysis was performed by […] amino acid analysis with JEX and post column derivatization with Ninhydrine.",
  "note": "Peptide text beside a SMILES is read from it.",
  "data": [
    {"smiles": "C[C@H](N)C(=O)N[C@@H](CCC(N)=O)C(=O)O", "note": "[AGD, L-alanyl-L-glutamine] (H-Ala-Gln-OH)", "values": [
      {"measurement": "decrease of the AGD, of original amount", "setting": "both samples (pH 7.4 and 7.8), storage at 25° C./60% rH", "value": "less than 5%"},
      {"measurement": "AGD, % of original amount after storage", "setting": "sample with pH-value of 7.4", "value": 98, "unit": "%"},
      {"measurement": "AGD, % of original amount after storage", "setting": "sample with pH-value of 7.8", "value": "> 95", "unit": "%"}
    ]}
  ]
}
